According to ChEMBL document CHEMBL3046173, “Synthesis, structure, anticancer, and antioxidant activity of para-xylyl linked bis-benzimidazolium salts and respective dinuclear Ag(I) N-heterocyclic carbene complexes (Part-II)” (Med Chem Res, 2013):

How the values were obtained:
[1] = tested on: HCT-116; experiment: Cytotoxicity against Homo sapiens (human) HCT116 cells assessed as growth inhibition after 48 hr by MTT assay; format: functional, cell-based; conditions: for IC50: HCT-116, 48 h
[2] = tested on: Radical scavenging activity; experiment: Antioxidant activity assessed as inhibition of DPPH free radicals at 400 uM after 30 min by microplate reader analysis relative to control; format: functional

For `O=c1[nH]cc(F)c(=O)[nH]1` [FLUOROURACIL], the “growth inhibition (GI)” value [1] was “Dose-dependent effect” and the IC50 [1] was 19.2 µM.
With `CCCCCCCCCCn1c[n+](Cc2ccc(C[n+]3cn(CCCCCCCCCC)c4ccccc43)cc2)c2ccccc21` the inhibition [2] was 13.7%, the “growth inhibition (GI)” value [1] was “Dose-dependent effect” and the IC50 [1] was 3.3 µM.
With `O=C(O)c1cc(O)c(O)c(O)c1` the inhibition [2] was 77.7%.
With `CCCCCCCCCn1c[n+](Cc2ccc(C[n+]3cn(CCCCCCCCC)c4ccccc43)cc2)c2ccccc21` the inhibition [2] was 14.8%, the “growth inhibition (GI)” value [1] was “Dose-dependent effect” and the IC50 [1] was 2.8 µM.
For `c1ccc2[nH]cnc2c1` [BENZIMIDAZOLE], the inhibition [2] was 21%, the “growth inhibition (GI)” value [1] was “Dose-dependent effect” and the IC50 [1] was greater than 200 µM.
With `CCCCCCCCn1c[n+](Cc2ccc(C[n+]3cn(CCCCCCCC)c4ccccc43)cc2)c2ccccc21` the inhibition [2] was 17.9%, the “growth inhibition (GI)” value [1] was “Dose-dependent effect” and the IC50 [1] was 0.9 µM.
